Measured values published in paper PMC3906059, “Activation and Inhibition of TMEM16A Calcium-Activated Chloride Channels” (PLoS ONE, 2014).
Values joined by “and” are separate entries in the source; they are usually repeats but may differ in a detail not shown here. Equal entries are not always repeated. “Also recorded” adds a separate entry of the source.

How the values were obtained:
TMEM16A (ANO1) [1] = biological target: T1, TMEM16A (ANO1) (Mus musculus, UniProt Q8BHY3); test: Anion permeability of the ANO1 pore, Erev under bi-ionic conditions; assay type: cell-based; settings: for permeability ratio PX/PCl: Ca^2+-activated current, calculated from Erev after junction potential correction; for zero current potential of I–V curve: example ramp −80 to +80 mV, [Ca^2+] = 20 µM, intracellular salt 140 mM (NaHCO3 130 mM + 10 mM NaCl)
T1 construct: We subcloned the coding region of the cDNA into pEGFP-N3 vector; expressed in transfected cells; host or cells: HEK293 cells
T1 sequence (Q8BHY3 1-956 isoform Q8BHY3-2): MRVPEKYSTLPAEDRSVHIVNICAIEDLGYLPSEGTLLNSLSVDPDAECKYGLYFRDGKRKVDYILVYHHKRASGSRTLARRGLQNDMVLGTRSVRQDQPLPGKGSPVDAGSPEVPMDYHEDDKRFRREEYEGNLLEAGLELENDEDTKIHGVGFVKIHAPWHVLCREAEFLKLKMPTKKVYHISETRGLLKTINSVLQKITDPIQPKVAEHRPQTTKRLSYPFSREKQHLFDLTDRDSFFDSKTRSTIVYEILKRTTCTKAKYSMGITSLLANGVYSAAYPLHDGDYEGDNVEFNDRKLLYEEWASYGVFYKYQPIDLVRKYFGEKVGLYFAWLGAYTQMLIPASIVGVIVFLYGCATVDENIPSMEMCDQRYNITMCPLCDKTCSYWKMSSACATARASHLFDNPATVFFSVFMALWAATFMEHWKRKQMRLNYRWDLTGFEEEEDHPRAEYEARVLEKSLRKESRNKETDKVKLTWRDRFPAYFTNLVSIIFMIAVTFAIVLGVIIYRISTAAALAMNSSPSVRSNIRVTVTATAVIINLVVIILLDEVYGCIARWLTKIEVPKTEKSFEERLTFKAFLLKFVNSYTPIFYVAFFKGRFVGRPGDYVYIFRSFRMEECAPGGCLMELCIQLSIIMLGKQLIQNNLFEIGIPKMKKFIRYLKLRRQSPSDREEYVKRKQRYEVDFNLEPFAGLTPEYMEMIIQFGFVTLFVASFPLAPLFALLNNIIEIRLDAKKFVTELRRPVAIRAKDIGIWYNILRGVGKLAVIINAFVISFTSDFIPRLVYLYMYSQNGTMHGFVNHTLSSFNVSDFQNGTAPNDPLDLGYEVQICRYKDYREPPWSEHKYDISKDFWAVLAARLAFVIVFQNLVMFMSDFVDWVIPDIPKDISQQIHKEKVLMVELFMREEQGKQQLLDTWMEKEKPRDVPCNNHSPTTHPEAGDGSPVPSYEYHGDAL
Description: (§1) The mouse TMEM16A cDNA (NCBI reference sequence: NM_001242349.1) encoding ANO1 CaCC was a generous gift from Dr. Lily Jan. We subcloned the coding region of the cDNA into pEGFP-N3 vector (Clontech Laboratories, Inc.), resulting in a construct in which an enhanced green fluorescent protein (eGFP) was attached to the C-terminus of the ANO1 protein. The sequence was confirmed by commercially-available DNA sequencing service. This eGFP-attached ANO1 cDNA construct was used for channel expression throughout the study. The cDNA was transfected into human embryonic kidney (HEK) 293 cells using lipofectamine transfection methods, [42], [43]. A fluorescent light source and a GFP filter set (Chroma Technology Co.) in the DM IRB inverted microscope (Leica Microsystems) were used to identify transfected cells expressing channel proteins. Electrophysiological experiments were performed ∼24 to 72 hours after transfection.
The anion permeability of the ANO1 pore was examined under bi-ionic conditions in which the extracellular solution contained 140 mM NaCl (the zero-Ca^2+ solution). The intracellular solution contained 140 mM sodium salts of various anions with the exception of the HCO3 ^− experiment in which the solution contained 130 mM NaHCO3 and 10 mM NaCl. In all intracellular solutions for the bi-ionic experiments, 0.1 mM EGTA and 0.12 mM total Ca^2+ or Sr^2+ were added to the solution to activate the ANO1 channel (Free [Ca^2+] or [Sr^2+] were saturating concentrations). Erev of the open channel was measured in two ways. First, under voltage-clamp configuration, a 3-sec voltage ramp from −80 mV to +80 mV was applied and the Erev of the leak-subtracted I-V curve was then determined (see Fig. 5 A & B). The second method employed the current-clamp (I = 0) mode in which the patch was exposed to divalent cations throughout the recording (Fig. 5 C and Fig. 6 A & C). When the intracellular solution contained the same concentration of Cl^− as that in the extracellular side, the recorded voltage (EI = 0) was normally close to 0 mV. When the intracellular solution was replaced by the one containing other anions, the value of EI = 0 changed to a new value corresponding to the Erev of the new ionic condition. It is important to point out that the measurement of Erev can be imprecise if the amplitude of the ANO1 current is not within a proper range. Therefore, in permeability ratio measurements we only used the data obtained from patches with a maximal current in the range of 100 pA–1000 pA at +40 mV. All the presented Erev values (and the recording traces for measuring Erev) are not corrected for junction potential difference between solutions because the junction potentials are relatively small. However, the reported permeability ratios were calculated based on the junction potential-corrected Erev. The correction for the junction potential results in very small changes in the calculated permeability ratios.
The permeability ratios of various anions versus Cl^− (PX/PCl, where X represents various anions) were calculated using the Erev obtained from bi-ionic experiments according to the following equation (eq. 3), PX/PCl = exp[Erev/(RT/F)], where R, T, and F are the gas constant, absolute temperature, and Faraday constant, respectively. Comparing the difference between Erev’s of the Ca^2+- and Sr^2+-activated current was performed using the pair t test at the significant level of 0.05.

TMEM16A (ANO1) [2] = biological target: T1, TMEM16A (ANO1); test: Activation of ANO1 current by divalent cations, excised inside-out patch with fast solution exchange; assay type: cell-based
Description: as §1
All chemicals were reagent grade. Regular salts (such as NaCl, NaOH, CaCl2, SrCl2, BaCl2, MgCl2 or sodium salts of various anions) were purchased from Fisher Chemicals (Fair Lawn, NJ), J. T. Baker (Phillipsburg, NJ) or Sigma Chemicals Co. (St. Louis, MO). EGTA, HEPES, and NFA were from Sigma Chemicals Co. Excised inside-out patch-clamp recordings were performed throughout the study. The extracellular (pipette) solution in all experiments contained: 140 mM NaCl, 10 mM HEPES, 0.1 mM EGTA, pH = 7.4. The regular intracellular solution contained 10 mM HEPES and 140 mM sodium salt of Cl^− or other anions. Various concentrations of divalent cations were made by adding certain total concentrations of divalent cations (Cl^− salts) into the solution containing a defined concentration of EGTA. We defined the pipette solution as the “zero-Ca^2+” solution. A solution containing a saturating [Ca^2+] was made by adding 0.12 mM total [Ca^2+] into the aforementioned zero-Ca^2+ solution, resulting in a solution containing ∼20 µM free [Ca^2+]. For making non-saturating [Ca^2+] solutions, the solutions included 1 mM EGTA. To make solutions containing Sr^2+ and Ba^2+, only 0.1 mM EGTA was used. The pH of all solutions was adjusted to 7.4.
Because of weak Mg^2+-EGTA binding, we referred the total [Mg^2+] as the free [Mg^2+]. The free [Ca^2+], [Sr^2+], and [Ba^2+] were calculated using the MaxChelator program (Ver1.2) kindly provided by Chris Patton from the Stanford University. This program was developed based on the binding constants available in the National Institute of Standard and Technology (NIST) between EGTA and these three divalent cations. Table S1, Table S2, and Table S3 list respectively the calculated free [Ca^2+], [Sr^2+], and [Ba^2+] used in this study. All added divalent cations were Cl^− salts. […] For example, in a solution containing 5 mM, 10 mM or 30 mM MgCl2, only 130 mM, 120 mM or 80 mM of NaCl, respectively, were added to the solution.
The patch-clamp recording pipettes were fabricated from borosilicate glass capillaries (World Precision Instruments) using PP830 electrode puller (Narishige International). When filled with the pipette solution, the electrode resistance was ∼1.5–3 MΩ. The experiments were carried out at room temperature (20–23°C) using the Axopatch 200B amplifier controlled by the Digidata I/O converter and the pClamp9 software (Axon Instruments/Molecular Devices).
Solution exchange was achieved using the SF-77 solution exchanger (Warner Instruments). After the excised inside-out patch mode was established, the tip of the patch pipette was positioned at the exit of the solution-delivery pipes of the SF-77 solution exchanger. The switch of solution pipes was controlled by a digital signal delivered from the Digidata 1320 digitizing board. […]

CaCC of Xenopus oocytes = test system: CaCC of Xenopus oocytes; parameters: method as in PMID 11279188; settings: cited from earlier work
[3] = Ca^2+-activated current (20 µM), 140 mM extracellular NaCl, anion as intracellular sodium salt 140 mM (HCO3: 130 mM NaHCO3 + 10 mM NaCl), without junction potential correction, averaged
[4] = current activated by 20 µM Sr^2+, current clamp (I = 0), without correcting for junction potential

Compound | Erev (bi-ionic potential) (TMEM16A (ANO1) [1]; [3]) | permeability ratio PX/PCl (TMEM16A (ANO1) [1]) | Erev (bi-ionic potential) (TMEM16A (ANO1) [1]; [4]) | zero current potential of I–V curve (TMEM16A (ANO1) [1]; 140 mM extracellular NaCl) | voltage dependence of inhibition (CaCC of Xenopus oocytes) | also measured
[I-].[Na+] [I^−] | 35.9±3.3 mV | ~4.1 | 33.4±0.3 mV | +39 mV |  | Erev (bi-ionic potential) (TMEM16A (ANO1) [1]; Ca^2+-activated current (20 µM), 140 mM extracellular NaCl, anion as intracellular sodium salt 140 mM (HCO3: 130 mM NaHCO3 + 10 mM NaCl), without junction potential correction, averaged, listed as I^–): ~+35 mV
[Cl-].[Cl-].[Sr+2] [Sr^2+] |  |  |  |  |  | difference of Erev between channels activated by Sr^2+ and Ca^2+ (TMEM16A (ANO1) [1]): 1–2 mV; maximal ANO1 current activated by saturating divalent cation compared with Is induced by saturating [Ca^2+] (TMEM16A (ANO1) [2]; Is induced by 20 µM Ca^2+, ±40 mV): can activate the same maximal current; also recorded: activated the channel to the same maximal current level; Hill coefficient (n) of dose-response activation curve (TMEM16A (ANO1) [2]; values covering +40 and −40 mV): 2–2.6 and ~2; EC50 (TMEM16A (ANO1) [2]; values covering +40 and −40 mV, read-out: K1/2 of ANO1 activation): 5 to 10 µM and ~5 µM
[Br-].[Na+] [Br^−] | 18.0±1.2 mV | ~2.1 | 16.2±0.4 mV | +17 mV |  | 
O=C(O)c1c2ccccc2cc2ccccc12 [A9C] |  |  |  |  | voltage dependent | sideness of the block (CaCC of Xenopus oocytes): from the extracellular side
O=[N+]([O-])[O-].[Na+] [NO3 ^−] | 32.9±1.1 mV | ~3.5 | 31.3±0.5 mV | +33 mV |  | 
O=S(=O)(O)c1cc(N=C=S)ccc1C=Cc1ccc(N=C=S)cc1S(=O)(=O)O [DIDS] |  |  |  |  | voltage dependent | 
